Experimental data from ChEMBL document CHEMBL1201862, “PubChem BioAssay data set” (2004).
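96-well plates; 48 h exposure; 5 concentrations. Endpoints by linear interpolation between flanking doses. Not reached: highest tested concentration assigned. GI50 marks 50% less growth.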 Activity calls are given as the source filed them. Rule as the data show it: active = GI50 up to about 1.1 µM and inactive = higher.

Columns and labels:
Assay in all cases: growth of human tumour cells (NCI), 48 h
MDA-MB-435 = tested on: MDA-MB-435
HCC 2998 = tested on: HCC 2998
MOLT-4 = tested on: MOLT-4
PC-3 = tested on: PC-3
HCT-116 = tested on: HCT-116
CCRF-CEM = tested on: CCRF-CEM
OVCAR-3 = tested on: OVCAR-3
SNB-19 = tested on: SNB-19
A549 = tested on: A549
HOP-62 = tested on: HOP-62
UACC-62 = tested on: UACC-62
SK-MEL-28 = tested on: SK-MEL-28
786-0 = tested on: 786-0
HCT-15 = tested on: HCT-15
MCF7 = tested on: MCF7
KM12 = tested on: KM12
SF-268 = tested on: SF-268
UACC-257 = tested on: UACC-257
MDA-N = tested on: MDA-N
HOP-92 = tested on: HOP-92
LOX IMVI = tested on: LOX IMVI
ACHN = tested on: ACHN
SR = tested on: SR
OVCAR-5 = tested on: OVCAR-5
EKVX = tested on: EKVX
RXF 393 = tested on: RXF 393
NCI-H23 = tested on: NCI-H23
SK-MEL-2 = tested on: SK-MEL-2
U-251 = tested on: U-251
Malme-3M = tested on: Malme-3M
SNB-75 = tested on: SNB-75
TK-10 = tested on: TK-10
IGROV-1 = tested on: IGROV-1
NCI-H226 = tested on: NCI-H226
OVCAR-4 = tested on: OVCAR-4
SF-295 = tested on: SF-295
NCI-H460 = tested on: NCI-H460
K562 = tested on: K562
NCI-H522 = tested on: NCI-H522
NCI/ADR-RES = tested on: NCI/ADR-RES
SN12C = tested on: SN12C
HT-29 = tested on: HT-29
COLO 205 = tested on: COLO 205
T47D = tested on: T47D
OVCAR-8 = tested on: OVCAR-8
Hs-578T = tested on: Hs-578T
CAKI-1 = tested on: CAKI-1
SK-OV-3 = tested on: SK-OV-3
A498 = tested on: A498
M14 = tested on: M14
BT-549 = tested on: BT-549
MDA-MB-231 = tested on: MDA-MB-231
SK-MEL-5 = tested on: SK-MEL-5
UO-31 = tested on: UO-31
SW-620 = tested on: SW-620
SF-539 = tested on: SF-539
DU-145 = tested on: DU-145
HL-60 = tested on: HL-60
RPMI-8226 = tested on: RPMI-8226

CC(C)C(C/C=C1\CC(CO)(COC(=O)c2ccccc2)OC1=O)C(C)C (configuration not stated)
GI50 (MDA-MB-435): 84900 nM (inactive)
GI50 (HCC 2998): 22400 nM (inactive)
GI50 (MOLT-4): 18200 nM (inactive)
GI50 (PC-3): 15800 nM (inactive)
GI50 (HCT-116): 17200 nM (inactive)
GI50 (CCRF-CEM): 12100 nM (inactive)
GI50 (OVCAR-3): 21200 nM (inactive)
GI50 (SNB-19): 17900 nM (inactive)
GI50 (A549): 15800 nM (inactive)
GI50 (HOP-62): 13700 nM (inactive)
GI50 (UACC-62): > 100000 nM (inactive)
GI50 (SK-MEL-28): 16300 nM (inactive)
GI50 (786-0): 14800 nM (inactive)
GI50 (HCT-15): 21600 nM
GI50 (MCF7): 20900 nM (inactive)
GI50 (KM12): 17500 nM (inactive)
GI50 (SF-268): 19000 nM (inactive)
GI50 (UACC-257): 27600 nM (inactive)
GI50 (MDA-N): 21200 nM (inactive)
GI50 (HOP-92): 13400 nM (inactive)
GI50 (LOX IMVI): 19500 nM (inactive)
GI50 (ACHN): 16700 nM (inactive)
GI50 (SR): 32200 nM (inactive)
GI50 (OVCAR-5): 14300 nM (inactive)
GI50 (EKVX): 14900 nM (inactive)
GI50 (RXF 393): 23000 nM (inactive)
GI50 (NCI-H23): 20200 nM (inactive)
GI50 (SK-MEL-2): > 100000 nM (inactive)
GI50 (U-251): 19100 nM (inactive)
GI50 (Malme-3M): 16800 nM (inactive)
GI50 (SNB-75): 15300 nM (inactive)
GI50 (TK-10): 19000 nM (inactive)
GI50 (IGROV-1): 20700 nM (inactive)
GI50 (NCI-H226): 19800 nM (inactive)
GI50 (OVCAR-4): 18800 nM (inactive)
GI50 (SF-295): 14500 nM (inactive)
GI50 (NCI-H460): 15800 nM (inactive)
GI50 (K562): 12000 nM (inactive)
GI50 (NCI-H522): 21600 nM (inactive)
GI50 (NCI/ADR-RES): 20700 nM (inactive)
GI50 (SN12C): 17200 nM (inactive)
GI50 (HT-29): 19100 nM (inactive)
GI50 (COLO 205): 11500 nM (inactive)
GI50 (T47D): 93800 nM (inactive)
GI50 (OVCAR-8): 19200 nM (inactive)
GI50 (Hs-578T): 13100 nM (inactive)
GI50 (CAKI-1): 18700 nM (inactive)
GI50 (SK-OV-3): 28100 nM (inactive)
GI50 (A498): 21300 nM (inactive)
GI50 (M14): 14800 nM (inactive)
GI50 (BT-549): 21700 nM (inactive)
GI50 (MDA-MB-231): 21300 nM (inactive)
GI50 (SK-MEL-5): 10400 nM (inactive)
GI50 (UO-31): 17400 nM (inactive)
GI50 (SW-620): 18000 nM (inactive)

O=C1c2cccnc2-c2nccc3c2c1nc1ccccc13 [ASCIDIDEMIN]
GI50 (MDA-MB-435): 190 nM (active)
GI50 (SF-539): 189 nM (active)
GI50 (MOLT-4): 692 nM (active)
GI50 (PC-3): 188 nM (active)
GI50 (HCT-116): 35.2 nM (active)
GI50 (DU-145): 62.1 nM (active)
GI50 (CCRF-CEM): 501 nM (active)
GI50 (OVCAR-3): 31.8 nM (active)
GI50 (SNB-19): 281 nM (active)
GI50 (A549): 255 nM (active)
GI50 (HOP-62): 97 nM (active)
GI50 (UACC-62): 224 nM (active)
GI50 (SK-MEL-28): 321 nM (active)
GI50 (786-0): 752 nM (active)
GI50 (HCT-15): 37 nM
GI50 (MCF7): 70.8 nM (active)
GI50 (KM12): 183 nM (active)
GI50 (SF-268): 109 nM (active)
GI50 (UACC-257): 321 nM (active)
GI50 (MDA-N): 157 nM (active)
GI50 (HOP-92): 490 nM (active)
GI50 (LOX IMVI): 51.2 nM (active)
GI50 (ACHN): 37.1 nM (active)
GI50 (OVCAR-5): 475 nM (active)
GI50 (EKVX): 912 nM (active)
GI50 (RXF 393): 140 nM (active)
GI50 (NCI-H23): 172 nM (active)
GI50 (SK-MEL-2): 184 nM (active)
GI50 (U-251): 84.5 nM (active)
GI50 (Malme-3M): 231 nM (active)
GI50 (SNB-75): 389 nM (active)
GI50 (TK-10): 1270 nM (inactive)
GI50 (IGROV-1): 310 nM (active)
GI50 (NCI-H226): 210 nM (active)
GI50 (OVCAR-4): 1030 nM (active)
GI50 (SF-295): 79.8 nM (active)
GI50 (NCI-H460): 87.9 nM (active)
GI50 (K562): 166 nM (active)
GI50 (NCI-H522): 97.5 nM (active)
GI50 (NCI/ADR-RES): 55.1 nM (active)
GI50 (SN12C): 186 nM (active)
GI50 (HT-29): 1190 nM (inactive)
GI50 (COLO 205): 1990 nM (inactive)
GI50 (HL-60): 100 nM (active)
GI50 (T47D): 290 nM (active)
GI50 (OVCAR-8): 50.5 nM (active)
GI50 (Hs-578T): 637 nM (active)
GI50 (CAKI-1): 215 nM (active)
GI50 (SK-OV-3): 272 nM (active)
GI50 (A498): 270 nM (active)
GI50 (M14): 46.6 nM (active)
GI50 (BT-549): 169 nM (active)
GI50 (MDA-MB-231): 188 nM (active)
GI50 (SK-MEL-5): 58.3 nM (active)
GI50 (UO-31): 143 nM (active)
GI50 (RPMI-8226): 264 nM (active)
GI50 (SW-620): 70.5 nM (active)
